Target: human phosphoglucose isomerase (hPGI) / autocrine motility factor (Homo sapiens, UniProt P06744)
Test: end-point isomerization kinetics
Assay type: biochemical

Ki: 12 µM
Structure (SMILES): O=C(O)[C@H](O)[C@@H](O)[C@H](O)[C@H](O)COP(=O)(O)O [6P-GA, 6-phosphogluconate]

— paper PMC5668625 (Biochemistry and Biophysics Reports, 2015)
